SMILES strings stand for the structures.

In the first assay the target is human NEP (Homo sapiens (Human), UniProt P08473). In words: In vitro enzyme inhibition assay, inhibitor potencies at human NEP.
Chain of human NEP (P08473 52-750): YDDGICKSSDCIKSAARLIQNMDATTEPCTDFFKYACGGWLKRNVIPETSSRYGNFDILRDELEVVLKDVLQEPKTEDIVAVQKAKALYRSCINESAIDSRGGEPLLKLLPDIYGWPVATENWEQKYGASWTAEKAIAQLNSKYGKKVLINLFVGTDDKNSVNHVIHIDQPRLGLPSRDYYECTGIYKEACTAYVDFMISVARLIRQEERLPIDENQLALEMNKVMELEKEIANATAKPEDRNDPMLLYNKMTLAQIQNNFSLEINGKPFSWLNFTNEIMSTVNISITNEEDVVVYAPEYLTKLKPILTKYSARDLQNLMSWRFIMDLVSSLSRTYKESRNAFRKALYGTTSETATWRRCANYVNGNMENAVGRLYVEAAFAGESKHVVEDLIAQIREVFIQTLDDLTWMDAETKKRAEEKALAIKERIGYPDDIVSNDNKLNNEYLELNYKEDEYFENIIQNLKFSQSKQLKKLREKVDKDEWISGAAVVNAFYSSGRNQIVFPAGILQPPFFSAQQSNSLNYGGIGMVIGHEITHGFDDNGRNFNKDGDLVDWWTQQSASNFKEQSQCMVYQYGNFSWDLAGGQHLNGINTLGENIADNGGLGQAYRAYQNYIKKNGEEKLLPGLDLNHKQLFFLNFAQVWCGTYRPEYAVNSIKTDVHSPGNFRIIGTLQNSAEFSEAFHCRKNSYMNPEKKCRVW
Details: not given
In general, Ki refers to a dissociation constant, usually derived from enzyme kinetics or from competition with a known ligand. As for `Cc1nc2c(Cl)cc(C(=O)NC(Cc3ccc(-c4ccccc4)cc3)C[C@H](CO)C(=O)O)cc2[nH]1` (stereo partly drawn) [Example 4-38, (R)-5-Biphenyl-4-yl-4-[(7-chloro-2-methyl-3H-benzoimidazole-5-carbonyl)-amino]-2-hydroxymethyl-pentanoic acid], the Ki was in the range of 12.6 to 100 nM.
Same read-out and setting: with `C[C@@](CO)(C[C@@H](Cc1ccc(-c2ccccc2)cc1)NC(=O)c1nc(Cl)n[nH]1)C(=O)O` [Example 6-1, (2S,4R)-5-Biphenyl-4-yl-4-[(5-chloro-2H-[1,2,4]triazole-3-carbonyl)-amino]-2-hydroxymethyl-2-methyl-pentanoic acid] the figure was 1.26 to 10 nM; with `O=C(N[C@H](Cc1ccc(-c2ccccc2)cc1)C[C@H](CO)C(=O)O)c1cnn[nH]1` [Example 4-1, (2R,4S)-5-Biphenyl-4-yl-2-hydroxymethyl-4-[(3H-[1,2,3]triazole-4-carbonyl)-amino]-pentanoic acid], 1.26 to 10 nM.
Same read-out and setting: with `C[C@@](CO)(C[C@@H](Cc1ccc(-c2ccc(F)cc2)cc1)NC(=O)c1cnn[nH]1)C(=O)O` [Example 8-3, (2S,4R)-5-(4′-Fluorobiphenyl-4-yl)-2-hydroxymethyl-2-methyl-4-[(3H-[1,2,3]triazole-4-carbonyl)-amino]-pentanoic acid] the figure was 12.6 to 100 nM; with `O=C(NC(Cc1ccc(-c2ccccc2)cc1)C[C@@H](CO)C(=O)O)c1cc(F)c2nn[nH]c2c1` (stereo partly drawn) [Example 4-33, (S)-5-Biphenyl-4-yl-4-[(7-fluoro-3H-benzotriazole-5-carbonyl)-amino]-2-hydroxymethyl-pentanoic acid], at most 1 nM.
Same read-out and setting: as for `O=C(O)c1cc(C(=O)N[C@H](Cc2ccc(-c3ccccc3)cc2)C[C@@H](CO)C(=O)O)[nH]n1` [Example 4-18, 5-((1S,3S)-1-Biphenyl-4-ylmethyl-3-carboxy-4-hydroxy-butylcarbamoyl)-1H-pyrazole-3-carboxylic acid], the figure is at most 1 nM; as for `O=C(N[C@H](Cc1ccc(-c2cccc(Cl)c2)cc1)C[C@@H](CO)C(=O)O)c1cn(O)nn1` [Example 4-10, (2S,4S)-5-(3′-Chloro-biphenyl-4-yl)-2-hydroxymethyl-4-[(1-hydroxy-1H-[1,2,3]triazole-4-carbonyl)-amino]-pentanoic acid], at most 1 nM; as for `C[C@@](CO)(C[C@@H](Cc1ccc(-c2ccccc2F)cc1)NC(=O)c1cn(O)nn1)C(=O)O` [Example 8-4, (2S,4R)-5-(2′-Fluoro-biphenyl-4-yl)-2-hydroxymethyl-4-[(1-hydroxy-1H-[1,2,3]triazole-4-carbonyl)-amino]-2-methyl-pentanoic acid], at most 1 nM.
The compound `C[C@@](CO)(C[C@@H](Cc1ccc(-c2ccccc2F)cc1)NC(=O)c1coc(=O)[nH]1)C(=O)O` [Example 8-5, (2S,4R)-5-(2′-Fluoro-biphenyl-4-yl)-2-hydroxymethyl-2-methyl-4-[(2-oxo-2,3-dihydro-oxazole-4-carbonyl)-amino]-pentanoic acid] returned a Ki of at most 1 nM.
Turning to `O=C(N[C@H](Cc1ccc(-c2ccccc2F)cc1)C[C@@H](CO)C(=O)O)c1cn(O)nn1` [Example 4-8, (2S,4S)-5-(2′-Fluorobiphenyl-4-yl)-2-hydroxymethyl-4-[(1-hydroxy-1H-[1,2,3]triazole-4-carbonyl)-amino]-pentanoic acid], the Ki was at most 1 nM.
The same measure, in the same setting: as for `O=C(N[C@H](Cc1ccc(-c2ccccc2)cc1)C[C@@H](CO)C(=O)O)c1cn(O)nn1` [Example 4-7, (2S,4S)-5-Biphenyl-4-yl-2-hydroxymethyl-4-[(1-hydroxy-1H-[1,2,3]triazole-4-carbonyl)-amino]-pentanoic acid], the figure is at most 1 nM.
`C[C@@](CO)(C[C@@H](Cc1ccc(-c2ccccc2)cc1)NC(=O)c1cc(O)no1)C(=O)O` [Example 6-19, (2S,4R)-5-Biphenyl-4-yl-4-[(3-hydroxy-isoxazole-5-carbonyl)-amino]-2-hydroxymethyl-2-methyl-pentanoic acid] displayed a Ki of at most 1 nM.
Turning to `CC(CO)(C[C@@H](Cc1ccc(-c2ccccc2)cc1)NC(=O)c1cc(C(=O)O)n[nH]1)C(=O)O` (stereo partly drawn) [Example 6-15, 5-((R)-1-Biphenyl-4-ylmethyl-3-carboxy-4-hydroxy-3-methyl-butylcarbamoyl)-1H-pyrazole-3-carboxylic acid], the Ki was at most 1 nM.
Turning to `O=C(N[C@H](Cc1ccc(-c2cccc(F)c2)cc1)C[C@@H](CO)C(=O)O)c1cc(-c2ccccc2Cl)n[nH]1` [Example 4-29, (2S,4S)-4-{[5-(2-Chlorophenyl)-2H-pyrazole-3-carbonyl]-amino}-5-(3′-fluorobiphenyl-4-yl)-2-hydroxymethyl-pentanoic acid], the Ki was at most 1 nM.
`C[C@@](CO)(C[C@@H](Cc1ccc(-c2cccc(F)c2)cc1)NC(=O)c1cnn[nH]1)C(=O)O` [Example 8-1, (2S,4R)-5-(3′-Fluorobiphenyl-4-yl)-2-hydroxymethyl-2-methyl-4-[(3H-[1,2,3]triazole-4-carbonyl)-amino]-pentanoic acid]: the Ki was at most 1 nM.
As to `C[C@@](CO)(C[C@@H](Cc1ccc(-c2ccccc2)cc1)NC(=O)c1cnc(O)nc1)C(=O)O` [Example 6-18, (2S,4R)-5-Biphenyl-4-yl-2-hydroxymethyl-4-[(2-hydroxy-pyrimidine-5-carbonyl)-amino]-2-methyl-pentanoic acid], the Ki is at most 1 nM.
On the same count and under the same terms, with `C[C@@](CO)(C[C@@H](Cc1ccc(-c2ccccc2)cc1)NC(=O)c1cn(O)nn1)C(=O)O` [Example 6-4, (2S,4R)-5-Biphenyl-4-yl-2-hydroxymethyl-4-[(1-hydroxy-1H-[1,2,3]triazole-4-carbonyl)-amino]-2-methyl-pentanoic acid] the figure was at most 1 nM; with `C[C@](CO)(C[C@@H](Cc1ccc(-c2ccccc2)cc1)NC(=O)c1cnn[nH]1)C(=O)O` [Example 6-3, (2R,4R)-5-Biphenyl-4-yl-2-hydroxymethyl-2-methyl-4-[(3H-[1,2,3]triazole-4-carbonyl)-amino]-pentanoic acid], 12.6 to 100 nM.
On the same count and under the same terms, as for `O=C(NC(Cc1ccc(-c2ccccc2)cc1)C[C@H](CO)C(=O)O)c1cc(Cl)c2nc[nH]c2c1` (stereo partly drawn) [Example 4-36, (R)-5-Biphenyl-4-yl-4-[(7-chloro-3H-benzoimidazole-5-carbonyl)-amino]-2-hydroxymethyl-pentanoic acid], the figure is 1.26 to 10 nM.
`C[C@@](CO)(C[C@@H](Cc1ccc(-c2ccccc2)cc1)NC(=O)c1cc(O)n[nH]1)C(=O)O` [Example 6-17, (2S,4R)-5-Biphenyl-4-yl-2-hydroxymethyl-4-[(5-hydroxy-2H-pyrazole-3-carbonyl)-amino]-2-methyl-pentanoic acid] gave a Ki of 1.26 to 10 nM.

Staying with this assay, now noted: pKi values at human NEP; recombinant human NEP, fluorogenic peptide substrate, 37° C.
For `COCCN(C)C(=O)c1cc(C(=O)N[C@H](Cc2ccc(-c3ccccc3)cc2)C[C@@H](CO)C(=O)O)[nH]n1` [Example 4-22], the pKi is recorded as 8.0-8.9.

For the origin of these results see patent US10130642B2, “Neprilysin inhibitors” (THERAVANCE BIOPHARMA R&D IP, LLC, priority 2011, dated 2018).
